Legend:
[1] = tested on: Ishikawa human endometrial tumor cells; assay: Ishikawa Cell Proliferation Assay, agonist mode (alkaline phosphatase readout); assay type: cell-based; settings: for stimulation compared with tamoxifen: compound alone; for Emax: Homo sapiens, Ishikawa, versus the response to tamoxifen, read-out: relative % efficacy
Description: (§1) Ishikawa Cell Proliferation Assay: This assay measures cell proliferation (using an alkaline phosphatase readout) in both an agonist mode in the presence of a compound of the present invention alone, and in an antagonist mode in which the ability of a compound of the present invention to block estradiol stimulation of growth is measured.
(§2) Ishikawa human endometrial tumor cells are maintained in MEM (minimum essential medium, with Earle's salts and L-Glutamine, Gibco BRL, Gaithersburg, Md.), supplemented with 10% fetal bovine serum (FBS) (V/V), (Gibco BRL). One day prior to assay, growth media is changed to assay medium, DMEM/F-12 (3:1) (Dulbecco's Modified Eagle Medium:Nutrient Mixture F-12, 3:1 Mixture, phenol red-free, Gibco BRL) supplemented with 5% dextran coated charcoal stripped fetal bovine serum (DCC-FBS) (Hyclone, Logen, Utah), L-Glutamine (2 mM), MEM sodium pyruvate (1 mM), HEPES (N-[2-hydroxyethyl]piperazine-N′-[2-ethanesulfonic acid] 2 mM) all from Gibco BRL). After an overnight incubation, Ishikawa cells are rinsed with Dulbecco's Phosphate Buffered Saline (1×) (D-PBS) without Ca^+2 and Mg^+2 (Gibco BRL), and trypsinized by a 3 minute incubation with 0.25% Trypsin/EDTA, phenol red-free (Gibco BRL). Cells are resuspended in assay medium and adjusted to 250,000 cells/mL. Approximately 25,000 cells in a 100 ul media are added to flat-bottom 96 wells microculture plates (Costar 3596) and incubated at 37° C. in a 5% CO2 humidified incubator for 24 hours. The next day, serial dilutions of compounds are prepared in assay medium (at 6 times the final concentration in the assay). The assay is run in dual mode, agonist and antagonist modes.
For the agonist mode, plates receive 25 μl/well of assay medium followed by 25 μl/well of a diluted compound of the present invention (at 6× the final concentrations). For the antagonist mode, plates receive 25 μl/well of 6 nM E2 (β-Estradiol, Sigma, St. Louis, Mo.) followed by 25 μl/well of a diluted compound of the present invention (at 6× the final concentrations). After an additional 48-hour incubation at 37° C. in a 5% CO2 humidified incubator, media is aspirated from wells and 100 μl fresh assay medium is added to each microculture. Serial dilutions of compounds are prepared and added to the cells as described above. After an additional 72 hour incubation at 37° C. in a 5% CO2 humidified incubator, the assay is quenched by removing media and rinsing plates twice in Dulbecco's Phosphate Buffered Saline (1×) (D-PBS) (Gibco BRL). The plates are dried for 5 minutes and frozen at −70° C. for at least 1 hour. The plates are then removed from the freezer and allowed to thaw at room temperature. To each well, 100 μl of 1-Step™ PNPP (Pierce Chemical Company, Rockford, Ill.) is added. After a 20-minute incubation, plates are read on a spectophotometer at 405 nm.
(§3) The data is fitted to a linear interpolation to derive EC50 (for agonist mode) or IC50 (for antagonist mode) values. For the antagonist mode, a % efficacy for each compound is calculated versus E2 (1 nM) alone. For the agonist mode, a % efficacy for each compound is calculated versus the response to tamoxifen.

[2] = tested on: estrogenic stimulation of the uterus in immature female rats; assay: 3-Day Rat Uterus Antagonist Assay; assay type: in vivo; settings: 3 days, with E2 0.1 mg/kg; for inhibition of the estrogen-induced response (uterine weight/body weight ratio): 1.0 mg/kg oral; for % antagonism / ED50: oral
Source text: 3-Day Rat Uterus Antagonist Assay: This model for uterine antagonism utilizes immature (3 week old) female rats that are highly sensitive to estrogenic stimulation of the uterus given that their circulating estrogen levels are prepubertal. The uteri from immature rats are fully responsive to exogenous estrogen, yet are quiescent in the absence of exogenous estrogen. Administration of exogenous estrogen to immature rats produces a reliable elevation of uterine weight, which can be used to study uterine antagonist effects. The rats are treated with both estradiol and 4 different concentrations of a compound of the present invention for 3 days and then uterine wet weights are measured.
Nineteen to twenty-one day old (or 45-50 g) female rats are orally treated with E2 (0.1 mg/kg, a maximal stimulatory estrogenic stimulus for reliably increasing uterine weight) and 10, 1.0, 0.1 and 0.01 mg/kg test compound for 3 days, 6 rats per group. Test compounds are dissolved in 20% β-hydroxycyclodextrin and administered by oral gavage in a volume of 0.2 mL daily (15 min. prior to the ethynyl estradiol gavage). A vehicle control, E2 alone and E2+raloxifene are also done as controls. The animals are fasted overnight following the final dose. On the following morning, the animals are weighed, then euthanized (by carbon dioxide asphyxiation) and the uteri rapidly collected (via a mid-line ventral incision) and weighed.
Uterine weight/body weight ratios (UWR) are calculated for each animal. The percent inhibition of the estrogen-induced response is then calculated by the following formula: percent inhibition=100×(UWRestrogen−UWRtest compound/UWRestrogen−UWRcontrol). ED50 values are derived from a semi-log regression analysis of the linear aspect of the dose response curve. Both the UWR data and the percent inhibition data are statistically analyzed by one way analysis of variance (ANOVA) with post-hoc testing by Fisher's PLSD when indicated by a p≦0.05. Statistical analyses are performed using the Statview® 4.0 software package.

[3] = tested on: mature F344 female rats; assay: 10-Day Rat Hormone (Ovarian Stimulation) Screen; assay type: in vivo; settings: oral gavage 10 days, serum about 2 hours after the 10th dose, RIA
Description: 10-Day Rat Hormone (Ovarian Stimulation) Screen: An initial, first screen for ovarian toxicity is conducted using a 10-day rat hormone study to measure estradiol and luteinizing hormone levels after compound administration. This screen is conducted by administering compound by oral gavage for 10 days to mature (9-10 week old) F344 female rats. Trunk blood is collected by rapid decapitation for evaluation of LH and estradiol levels approximately 2 hours after the 10th dose. Serum, obtained by centrifugation, is removed and stored frozen below −60° C. until assayed. Serum levels of LH and estradiol are measured using radioimmunoassay (RIA) methods.
Rat LH primary antibody and reference preparations (rat LH:RP-3) are obtained from Dr. A. F. Parlow, Director, Pituitary Hormones and Antisera Center, Harbor-UCLA Medical Center, Torrance, Calif. The LH assay upper limits of detection are 30 ng/mL and the lower limits of detection are 0.1 ng/mL for the 100 μl samples.
E2 Clinical Assays. DiaSorin s.r.l., Saluggia (Vercelli), Italy. The upper limit of detection is 1000 pg/mL and the lower limit of detection is 5 pg/mL.

[4] = tested on: uterus of mature, ovariectomized rats; assay: 4-Day OVX Rat Uterine Agonist Assay; assay type: in vivo; settings: 4 days of treatment, 3 doses
Description: Seventy-five day old rats are ovariectomized and treatment is started 14 days later when circulating estradiol levels have reached minimal levels. After 4 days of treatment with 3 doses of a compound of the present invention, (6 rats per group) body weight, uterine wet weight and uterine eosinophil peroxidase (EPO) activity are measured. Cholesterol levels are also measured to compare relative ability to lower cholesterol with other SERMs. If there is any question of uterine stimulation, histological examination will determine epithelial cell height.

[5] = tested on: Ishikawa human endometrial tumor cells; assay: Ishikawa Cell Proliferation Assay, antagonist mode (block of estradiol stimulation); assay type: cell-based; settings: for IC50: 1 nM E2; for Emax: versus E2 (1 nM) alone, read-out: % efficacy
Description: as §1, §2
For the agonist mode, plates receive 25 μl/well of assay medium followed by 25 μl/well of a diluted compound of the present invention (at 6× the final concentrations). For the antagonist mode, plates receive 25 μl/well of 6 nM E2 (β-Estradiol, Sigma, St. Louis, Mo.) followed by 25 μl/well of a diluted compound of the present invention (at 6× the final concentrations). After an additional 48-hour incubation at 37° C. in a 5% CO2 humidified incubator, media is aspirated from wells and 100 μl fresh assay medium is added to each microculture. Serial dilutions of compounds are prepared and added to the cells as described above. […] After a 20-minute incubation, plates are read on a spectophotometer at 405 nm.
as §3

SMILES | stimulation compared with tamoxifen [1] | inhibition of the estrogen-induced response (uterine weight/body weight ratio) [2] | other results
OCc1ccc2c(c1)OC(c1ccc(OCCN3CCCCC3)cc1)c1c-2ccc2cc(O)ccc12 (racemic) [Example 37, 8-Hydroxymethyl-5-[4-(2-piperidin-1-yl-ethoxy)-phenyl]-5H-6-oxa-chrysen-2-ol] | less stimulatory than tamoxifen | inhibit the estrogen-induced response | % antagonism [2]: 89%; ED50 [2]: 0.06 mpk; circulating LH levels [3]: did not significantly elevate; circulating estradiol levels [3]: did not significantly elevate
Cl.NC(=O)c1cccc(-c2ccc3cc(O)ccc3c2Oc2ccc(OCCN3CCCCC3)cc2)c1 [Example 1, 3-{6-Hydroxy-1-[4-(2-piperidin-1-yl-ethoxy)-phenoxy]-naphthalen-2-yl}-benzamide hydrochloride] | less stimulatory than tamoxifen |  | 
COC(=O)c1cccc(-c2ccc3cc(O)ccc3c2Oc2ccc(OCCN3CCCCC3)cc2)c1.Cl [Example 2, 3-{6-Hydroxy-1-[4-(2-piperidin-1-yl-ethoxy)-phenoxy]-naphthalen-2-yl}-benzoic acid methyl ester hydrochloride] | less stimulatory than tamoxifen |  | 
O=C(O)C(F)(F)F.O=C(O)c1cccc(-c2ccc3cc(O)ccc3c2Oc2ccc(OCCN3CCCCC3)cc2)c1 [Example 3, 3-{6-Hydroxy-1-[4-(2-piperidin-1-yl-ethoxy)-phenoxy]-naphthalen-2-yl}-benzoic acid trifluoroacetate] | less stimulatory than tamoxifen |  | 
COC(=O)c1ccc(-c2ccc3cc(O)ccc3c2Oc2ccc(OCCN3CCCCC3)cc2)cc1.Cl [Example 5, 4-{6-Hydroxy-1-[4-(2-piperidin-1-yl-ethoxy)-phenoxy]-naphthalen-2-yl}-benzoic acid methyl ester hydrochloride] | less stimulatory than tamoxifen | inhibit the estrogen-induced response | uterine eosinophil peroxidase (EPO) activity [4]: did not cause any dose-related statistically significant increase in EPO activity; circulating LH levels [3]: did not significantly elevate; circulating estradiol levels [3]: did not significantly elevate
Cl.O=C(O)c1ccc(-c2ccc3cc(O)ccc3c2Oc2ccc(OCCN3CCCCC3)cc2)cc1 [Example 6, 4-{6-Hydroxy-1-[4-(2-piperidin-1-yl-ethoxy)-phenoxy]-naphthalen-2-yl}-benzoic acid hydrochloride] | less stimulatory than tamoxifen |  | 
CN(C)C(=O)c1cccc(-c2ccc3cc(O)ccc3c2Oc2ccc(OCCN3CCCCC3)cc2)c1.Cl [Example 8, 3-{6-Hydroxy-1-[4-(2-piperidin-1-yl-ethoxy)-phenoxy]-naphthalen-2-yl}-N,N-dimethylbenzamide, hydrochloride salt] | less stimulatory than tamoxifen | inhibit the estrogen-induced response | Emax [1]: 15%; IC50 [5]: 9 nM; Emax [5]: 95%
Cl.O=C1NCc2cc(-c3ccc4cc(O)ccc4c3Oc3ccc(OCCN4CCCCC4)cc3)ccc21 [Example 11, 5-{6-Hydroxy-1-[4-(2-piperidin-1-yl-ethoxy)-phenoxy]-naphthalen-2-yl}-2,3-dihydro-isoindol-1-one Hydrochloride] | less stimulatory than tamoxifen | inhibit the estrogen-induced response | % antagonism [2]: 79%; ED50 [2]: 0.3 mpk
O=C(O)C(F)(F)F.O=C(O)c1cccc2c1OC(c1ccc(OCCN3CCCCC3)cc1)c1c-2ccc2cc(O)ccc12 (centres unmarked) [Example 35, 2-Hydroxy-5-[4-(2-piperidin-1-yl-ethoxy)-phenyl]-5H-6-oxa-chrysene-7-carboxylic acid trifluoroacetate] | less stimulatory than tamoxifen |  | Emax [1]: 25%; IC50 [5]: 36 nM; Emax [5]: 92%
COc1ccc2c3c(ccc2c1)-c1ccc(CO)cc1OC3c1ccc(OCCN2CCCCC2)cc1 (centres unmarked) [Example 36, {2-Methoxy-5-[4-(2-piperidin-1-yl-ethoxy)-phenyl]-5H-6-oxa-chrysen-8-yl}-methanol] | less stimulatory than tamoxifen |  | 
OCc1ccc2c(c1)OC(c1ccc(OCCN3CCCCC3)cc1)c1c-2ccc2cc(O)ccc12 (centres unmarked) [Example 39, 8-Hydroxymethyl-5-[4-(2-piperidin-1-yl-ethoxy)-phenyl]-5H-6-oxa-chrysen-2-ol] | less stimulatory than tamoxifen |  | 
Cl.OCc1ccc(-c2ccc3cc(O)ccc3c2Oc2ccc(OCCN3CCCCC3)cc2)cc1 [Example 41, 6-(4-Hydroxymethyl-phenyl)-5-[4-(2-piperidin-1-yl-ethoxy)-phenoxy]-naphthalen-2-ol, hydrochloride] | less stimulatory than tamoxifen |  | 
COc1ccc2c(Oc3ccc(OCCN4CCCCC4)cc3)c(-c3ccc(C(C)(C)O)cc3)ccc2c1 [Example 44] | less stimulatory than tamoxifen |  | 

Reference: US20070111988A1, “Selective estrogen receptor modulators” (ELI LILLY AND COMPANY, priority 2004, published 2007)
